The values below come from patent US20250368624A1, “M24B AMINOPEPTIDASE INHIBITORS FOR CARD8 INFLAMMASOME ACTIVATION” (Memorial Sloan-Kettering Cancer Center, priority 2022, published 2025).

As a reminder, the IC50 is the concentration needed to halve the response being measured. Read a high IC50 as weaker potency in that assay.

Series [1] has as its system MV4;11 WT cells. Put plainly: CellTiter-Glo cell viability, WT MV4;11 cells. The series is classed as cell-based. The settings on record: Homo sapiens, MV4-11; 24 h, CTG. The protocol: (§1) CellTiter-Glo cell viability and CytoTox-Fluor cell death assays. Cells were plated (2,000 cells per well) in white, 384-well clear-bottom plates (Corning) using an EL406 Microplate Washer/Dispenser (BioTek) in 25 μL final volume of medium. To the cell plates were added compounds at different concentrations using a pintool (CyBio) and the plates were allowed to incubate in the incubator. After incubation for indicated times, CytoTox-Fluor reagent (Promega, G9262) was added according to the manufacturer's protocol. The assay plates were then incubated for another 30 min before fluorescence was recorded using a Cytation 5 Cell Imaging Multi-Mode Reader (BioTek). Next, CellTiter-Glo reagent (Promega, G7573) was subsequently added to the assay plates following the manufacturer's protocol. Assay plates were shaken on an orbital shaker for 2 min and incubated at 25° C. for 10 min. Luminescence was then read using a Cytation 5 Cell Imaging Multi-Mode Reader (BioTek).
A general note: In ATP-based viability assays light output follows the ATP content of the culture.

Series [2] concerns primary bone marrow-derived macrophages (BMDMs) and mouse RAW264.7 cells. Put plainly: LDH release and GSDMD cleavage in BMDMs and RAW264.7 cells (mouse NLRP1). The settings on record: VbP 10 μM, CQ31/CQ80 20 μM, 24 h. The class given is cell-based. The protocol: Mouse BMDM isolation and culture. Bone marrow was harvested from the femurs and tibias of 7-12-week-old C57BL/6J mice. Briefly, femurs and tibias were harvested from mice and crushed with a mortar and pestle in cold 1×PBS supplemented with 2.5% FBS. The mixture was passed through a 70-μm nylon cell strainer. RBCs were lysed for 4-5 min on ice in 1×RBC lysis buffer (Biolegend) and cells were centrifuged at 300×g for 5 min at 4° C. The cell pellet was washed in cold 1×PBS supplemented with 2.5% FBS before being passed again through in a 70-μm nylon cell strainer and counted. Counted cells were plated on non-tissue culture 10-cm plates at 5-10×10^6 cells per plate in DMEM supplemented with 10% FBS and 15-20% L-cell media. Cells were incubated at 37° C. for 6 days before replating and assaying as indicated.
(§2) LDH cytotoxicity and immunoblotting assays. HEK293T cells were transiently transfected and treated with inhibitors as indicated. MV4;11, OCI AML2, THP-1, and RAW264.7 cells were plated in 12-well culture plates at 5×10^5 cells/well and treated as indicated. Supernatants were analyzed for LDH activity using the Pierce LDH Cytotoxicity Assay Kit (Life Technologies). LDH activity was quantified relative to a lysis control where cells were lysed in 80 μL of a 9% Triton X-100 solution. For immunoblotting, cells were washed 2× in PBS (pH=7.4), resuspended in PBS, and lysed by sonication. Protein concentrations were determined and normalized using the DCA Protein Assay kit (Bio-Rad). The samples were separated by SDS-PAGE, immunoblotted, and visualized using the Odyssey Imaging System (Li-Cor).
(LDH in the medium is a marker of cell lysis.)

Series [3] has as its system OCI-AML2 cells. In words: CellTiter-Glo cell viability, OCI-AML2 cells (WT, CARD8-/-). The following applies: OCI-AML2 WT vs CARD8-/-, 24 h, CTG. The series is classed as cell-based. On the procedure:
as §1

For series [4], the system named is human resting T cells. Put plainly: GSDMD cleavage in human resting T cells. The series is classed as cell-based. The following applies: 20 μM, 24 h.
Description: Human primary cell isolation and culture. Isolated human primary cells were obtained from Astarte Biologics. All cells were >90% purity, as validated by flow cytometry by Astarte Biologics. T cells were thawed in RPMI-1640 medium supplemented with 10% FBS and cultured in RPMI-1640 medium, 10% fetal bovine serum (FBS), and 30 U/mL IL-2 (Peprotech).
as §2

The test system of series [5] is MV4;11, OCI-AML2, and THP-1 cells. In words: LDH release and GSDMD cleavage immunoblot. The series is classed as cell-based. The settings on record: WT vs CARD8-/- cells, 20 μM, 24 h. The protocol:
as §2

Series [6] deals with MV4;11 cells. In words: Propidium iodide uptake, MV4;11 cells (WT, CASP1-/-, CARD8-/-). The series is classed as cell-based. The following applies: MV4;11 WT vs CASP1-/- or CARD8-/-, 6.25 μM. On the procedure:
Propidium iodideflux analysis. 2×10^4 MV4;11 or OCI-AML2 cells were plated in 384-well, black, clear-bottom plate (Corning) in RPMI medium. Cells were then treated as indicated and propidium iodide (PI) was added at a final concentration of 10 μM. PI fluorescence was measured at (Ex/Em: 535/617 nm) recorded at 37° C. every 5 mins in a Cytation 5 Cell Imaging Multi-Mode Reader (BioTek). The obtained measurements were baseline corrected to vehicle/DMSO and normalized to maximum response.

Series [7] in a line: Stability in cell culture supernatants. The following applies: cell culture supernatants. The series is classed as in vitro ADME.
For series [8], the system named is MV4;11 CASP1-/- cells. Put plainly: CellTiter-Glo cell viability, CASP1-/- MV4;11 cells. The class given is cell-based. The following applies: Homo sapiens, MV4-11; 24 h, CTG. The protocol: Cloning. CASP1^−/− MV4;11 cells^12; CARD8^−/− MV4;11, THP-1, OCI-AML2 cells^14; DPP8/9^−/− THP-1^12; PEPD^−/−, XPNPEP1^−/−, PEPD XPNPEP1^−/− THP-1 cells were generated. Plasmids for CARD8 variants, CASP1, GSDMD, dTAG-CARD8^ZUC were cloned as described previously (Hollingsworth et al., 2021; Johnson et al., 2018; Sharif et al., 2021).
as §1

Structures are written as SMILES. Where only a bound is given, the exact number is not on record here.

On to `COC(=O)[C@H](CC(C)C)NC(=O)[C@@H]1CCCN1C(=O)[C@@H](O)[C@H](N)CC(C)C` [CQ80, Methyl ((2S,3R)-3-amino-2-hydroxy-5-methylhexanoyl)-L-prolyl-L-leucinate], for which the IC50 in series [1] is 0.27 µM; in series [8], above 20 µM. In addition, the “pyroptosis (LDH release and GSDMD cleavage)” value in series [2] is given as “only VbP induced pyroptosis”. For the same compound, the cell death entry in series [3] was “induced cell death in WT, but not CARD8−/−”. Besides, the GSDMD cleavage entry in series [4] is “induced GSDMD cleavage”. The “LDH release and GSDMD cleavage” value in series [5] was “induced lactate dehydrogenase (LDH) release and GSDMD cleavage”. The PI uptake result in series [6] was “induced PI uptake in WT, but not CASP1−/− or CARD8−/−”. The “remained intact after 24 h” value in series [7] (24 h) is listed as around 50%.
`COC(=O)[C@@H]1CCCN1C(=O)[C@@H](O)[C@H](N)CC(C)C` [CQ31]: the IC50 in series [1] was 3.8 µM; in series [8] it was above 100 µM. Moreover, the “pyroptosis (LDH release and GSDMD cleavage)” value in series [2] is reported as “only VbP induced pyroptosis”. Besides, the cell death entry in series [3] was “induced cell death in WT, but not CARD8−/−”. For the same compound, in series [4], the GSDMD cleavage entry was “induced GSDMD cleavage”. Moreover, in series [5], the “LDH release and GSDMD cleavage” value is “induced lactate dehydrogenase (LDH) release and GSDMD cleavage”. Moreover, the PI uptake result in series [6] is “induced PI uptake in WT, but not CASP1−/− or CARD8−/−”. In addition, in series [7], the “time to conversion to CQ04” value is recorded as at most 30 min.
